Tests used:
Assay type in all cases: cell-based
[1] = tested on: LAPC4 prostate cancer cells; assay: Antiproliferative effects in LAPC4 cells (CellTiter Glo); details: Homo sapiens, LAPC4, 72 h, LAPC4 cells (AKT1 E17K allele), read-out: LAPC4 proliferation IC50
Summary of the method: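 LAPC4 prostate cancer cells carrying AKT1 E17K, grown in IMDM with 12% FBS, were seeded at 1,000 cells/well and exposed to compound dilutions for 72 h. Viability was read as intracellular ATP by CellTiter Glo luminescence, and IC50 was fitted with a log(inhibitor) vs. response Hill equation.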

AKT2 = target: T1, AKT2 (Homo sapiens, UniProt P31751); assay: Live cell AKT2 target engagement by NanoBRET competitive probe displacement; details: HEK293 cells transfected with kinase-NanoLuciferase fusion, 2 h at 37° C.
T1 construct: expressed in transfected cells; host or cells: HEK293
T1 sequence (P31751 whole entry, the tested form may be a part): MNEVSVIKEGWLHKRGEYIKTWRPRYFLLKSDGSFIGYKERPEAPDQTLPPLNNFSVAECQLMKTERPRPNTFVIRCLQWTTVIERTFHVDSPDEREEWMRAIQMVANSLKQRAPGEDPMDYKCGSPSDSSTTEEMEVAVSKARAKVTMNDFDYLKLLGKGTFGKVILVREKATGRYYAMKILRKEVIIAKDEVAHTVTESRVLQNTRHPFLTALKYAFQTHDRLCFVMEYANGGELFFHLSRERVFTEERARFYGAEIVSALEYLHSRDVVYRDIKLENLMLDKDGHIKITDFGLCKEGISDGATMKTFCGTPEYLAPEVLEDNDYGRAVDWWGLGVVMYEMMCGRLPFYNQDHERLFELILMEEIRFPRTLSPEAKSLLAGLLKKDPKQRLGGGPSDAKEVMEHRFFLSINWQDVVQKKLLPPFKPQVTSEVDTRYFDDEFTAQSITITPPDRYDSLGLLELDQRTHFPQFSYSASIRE
Summary of the method: (§1)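 HEK293 cells transiently expressing kinase–NanoLuc fusions overnight; treated with serial compound dilutions plus fluorescent ATP-competitive tracer at ~EC50, 2 h at 37 °C. BRET ratio E600/E460 read after substrate and extracellular luciferase inhibitor; IC50 from log(inhibitor) vs response Hill fit.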

AKT1 WT = target: T2, AKT1 WT (Homo sapiens, UniProt P31749); assay: Live cell AKT1 WT target engagement by NanoBRET competitive probe displacement; details: HEK293 cells transfected with kinase-NanoLuciferase fusion, 2 h at 37° C.
T2 construct: expressed in transfected cells; host or cells: HEK293
T2 sequence (P31749 whole entry, the tested form may be a part): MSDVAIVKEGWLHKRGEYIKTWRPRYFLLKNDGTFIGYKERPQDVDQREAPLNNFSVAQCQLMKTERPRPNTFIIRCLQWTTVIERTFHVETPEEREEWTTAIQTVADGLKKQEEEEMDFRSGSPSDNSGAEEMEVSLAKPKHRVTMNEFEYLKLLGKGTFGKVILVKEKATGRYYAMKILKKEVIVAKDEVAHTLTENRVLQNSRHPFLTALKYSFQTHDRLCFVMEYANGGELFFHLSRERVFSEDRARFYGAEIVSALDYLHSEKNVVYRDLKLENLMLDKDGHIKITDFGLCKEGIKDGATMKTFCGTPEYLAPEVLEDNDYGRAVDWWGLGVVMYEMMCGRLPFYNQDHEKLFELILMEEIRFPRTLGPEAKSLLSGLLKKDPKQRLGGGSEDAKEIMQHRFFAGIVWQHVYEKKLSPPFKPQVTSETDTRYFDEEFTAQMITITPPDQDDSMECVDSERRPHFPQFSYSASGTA
Summary of the method: as §1

AKT1 E17K = target: T3, AKT1 E17K (Homo sapiens, UniProt P31749, E17K); assay: Live cell AKT1 E17K target engagement by NanoBRET competitive probe displacement; details: HEK293 cells transfected with kinase-NanoLuciferase fusion, 2 h at 37° C.
T3 construct: expressed in transfected cells; host or cells: HEK293
T3 sequence (P31749 whole entry E17K, the tested form may be a part): as the sequence (P31749 whole entry, the tested form may be a part) above, with E17K counted along it
Summary of the method: as §1

Row | Structure (SMILES) | IC50 [1] | IC50 (AKT2) | IC50 (AKT1 WT) | IC50 (AKT1 E17K)
1 | C=CC(=O)N1CCC(N[C@H]2CCc3cc(-n4c(-c5cccnc5N)nc5ccc(-n6ccc(C)n6)nc54)ccc32)CC1 [Example 243, 1-(4-{[(1S)-5-[2-(2-aminopyridin-3-yl)-5-(3-methylpyrazol-1-yl)imidazo[4,5-b]pyridin-3-yl]-2,3-dihydro-1H-inden-1-yl]amino}piperidin-1-yl)prop-2-en-1-one] | 150 nM | 98.5 nM | 217 nM | 17.3 nM
2 | C=CC(=O)N1CCC(N[C@H]2CCc3cc(-n4c(-c5ccccc5)nc5ccc(C6CC6)nc54)ccc32)CC1 [Example 246, 1-(4-{[(1S)-5-{5-cyclopropyl-2-phenylimidazo[4,5-b]pyridin-3-yl}-2,3-dihydro-1H-inden-1-yl]amino}piperidin-1-yl)prop-2-en-1-one] | 1600 nM | 711 nM | 2510 nM | 65.6 nM
3 | C=CC(=O)N1CCC(N[C@H]2CCc3cc(-n4c(-c5ccc(F)cc5)nc5ccc(-n6cccn6)nc54)ccc32)CC1 [Example 247, 1-(4-{[(1S)-5-[2-(4-fluorophenyl)-5-(pyrazol-1-yl)imidazo[4,5-b]pyridin-3-yl]-2,3-dihydro-1H-inden-1-yl]amino}piperidin-1-yl)prop-2-en-1-one] | 1680 nM | 469 nM | 3120 nM | 113 nM
4 | C=CC(=O)N1CCC(N[C@H]2CCc3cc(-n4c(-c5cccnc5F)nc5ccc(-n6cccn6)nc54)ccc32)CC1 [Example 251, 1-(4-{[(1S)-5-[2-(2-fluoropyridin-3-yl)-5-(pyrazol-1-yl)imidazo[4,5-b]pyridin-3-yl]-2,3-dihydro-1H-inden-1-yl]amino}piperidin-1-yl)prop-2-en-1-one] | 2230 nM | 280 nM | 2160 nM | 113 nM
5 | C=CC(=O)N1CCC(N[C@H]2CCc3cc(-n4c(-c5cccnc5N)nc5ccc(-n6ccc(Cl)n6)nc54)ccc32)CC1 [Example 252, 1-(4-{[(1S)-5-[2-(2-aminopyridin-3-yl)-5-(3-chloropyrazol-1-yl)imidazo[4,5-b]pyridin-3-yl]-2,3-dihydro-1H-inden-1-yl]amino}piperidin-1-yl)prop-2-en-1-one] | 90 nM | 38.5 nM | 127 nM | 10.4 nM
6 | C=CC(=O)N1CCC(N[C@H]2CCc3cc(-n4c(-c5cccnc5N)nc5ccc(-c6nc(C)co6)nc54)ccc32)CC1 [Example 253, 1-(4-{[(1S)-5-[2-(2-aminopyridin-3-yl)-5-(4-methyl-1,3-oxazol-2-yl)imidazo[4,5-b]pyridin-3-yl]-2,3-dihydro-1H-inden-1-yl]amino}piperidin-1-yl)prop-2-en-1-one] | 127 nM | 58.8 nM | 318 nM | 14.5 nM
7 | C=CC(=O)N1CCC(N[C@H]2CCc3cc(-n4c(-c5cccnc5N)nc5ccc(-n6cc(F)cn6)nc54)ccc32)CC1 [Example 254, (S)-1-(4-((5-(2-(2-aminopyridin-3-yl)-5-(4-fluoro-1H-pyrazol-1-yl)-3H-imidazo[4,5-b]pyridin-3-yl)-2,3-dihydro-1H-inden-1-yl)amino)piperidin-1-yl)prop-2-en-1-one] | 93.3 nM | 36.8 nM | 89.7 nM | 10.9 nM
8 | C=CC(=O)N1CCC(N[C@H]2CCc3cc(-n4c(-c5cccnc5N)nc5ccc(-c6ncc(C)o6)nc54)ccc32)CC1 [Example 255, 1-(4-{[(1S)-5-[2-(2-aminopyridin-3-yl)-5-(5-methyl-1,3-oxazol-2-yl)imidazo[4,5-b]pyridin-3-yl]-2,3-dihydro-1H-inden-1-yl]amino}piperidin-1-yl)prop-2-en-1-one] | 214 nM | 177 nM | 547 nM | 33.2 nM
9 | C=CC(=O)N1CCC(N[C@H]2CCc3cc(-n4c(-c5cccnc5N)nc5ccc(-c6nnc(C)o6)nc54)ccc32)CC1 [Example 256, (S)-1-(4-((5-(2-(2-aminopyridin-3-yl)-5-(5-methyl-1,3,4-oxadiazol-2-yl)-3H-imidazo[4,5-b]pyridin-3-yl)-2,3-dihydro-1H-inden-1-yl)amino)piperidin-1-yl)prop-2-en-1-one] | 809 nM | 394 nM | 1690 nM | 186 nM
10 | C=CC(=O)N1CCC(N[C@H]2CCc3cc(-n4c(-c5cccnc5N)nc5ccc(-c6nnc(C)s6)nc54)ccc32)CC1 [Example 257, (S)-1-(4-((5-(2-(2-aminopyridin-3-yl)-5-(5-methyl-1,3,4-thiadiazol-2-yl)-3H-imidazo[4,5-b]pyridin-3-yl)-2,3-dihydro-1H-inden-1-yl)amino)piperidin-1-yl)prop-2-en-1-one] | 103 nM | 73 nM | 432 nM | 13.8 nM
11 | C=CC(=O)N1CCC(N[C@H]2CCc3cc(-n4c(-c5cccnc5N)nc5ccc(N6CC7CCC(C6)O7)nc54)ccc32)CC1 [Example 258, 1-(4-{[(1S)-5-[2-(2-aminopyridin-3-yl)-5-{8-oxa-3-azabicyclo[3.2.1]octan-3-yl}imidazo[4,5-b]pyridin-3-yl]-2,3-dihydro-1H-inden-1-yl]amino}piperidin-1-yl)prop-2-en-1-one] | 526 nM | 915 nM | 1320 nM | 94.7 nM
12 | C=CC(=O)N1CCC(N[C@H]2CCc3cc(-n4c(-c5cccnc5N)nc5ccc(N6CCN(C)CC6)nc54)ccc32)CC1 [Example 259, 1-(4-{[(1S)-5-[2-(2-aminopyridin-3-yl)-5-(4-methylpiperazin-1-yl)imidazo[4,5-b]pyridin-3-yl]-2,3-dihydro-1H-inden-1-yl]amino}piperidin-1-yl)prop-2-en-1-one] | 1520 nM | 968 nM | 3290 nM | 150 nM
13 | C=CC(=O)NCc1ccccc1C(=O)N[C@H]1CCc2cc(-n3c(-c4cccnc4N)nc4ccc(-n5nccn5)nc43)ccc21 [Example 263, (S)-N-[(1S)-5-[2-(2-aminopyridin-3-yl)-5-(1,2,3-triazol-2-yl)imidazo[4,5-b]pyridin-3-yl]-2,3-dihydro-1H-inden-1-yl]-2-(prop-2-enamidomethyl)benzamide] | 680 nM | 153 nM | 2940 nM | 39.8 nM
14 | C=C(F)C(=O)NCc1ccccc1C(=O)N[C@H]1CCc2cc(-n3c(-c4cccnc4N)nc4ccc(-n5cccn5)nc43)ccc21 [Example 264, N-[(1S)-5-[2-(2-aminopyridin-3-yl)-5-(pyrazol-1-yl)imidazo[4,5-b]pyridin-3-yl]-2,3-dihydro-1H-inden-1-yl]-2-[(2-fluoroprop-2-enamido)methyl]benzamide] | 1330 nM | 171 nM | 937 nM | 27.8 nM
15 | C=CC(=O)N(C)Cc1ccccc1C(=O)N[C@H]1CCc2cc(-n3c(-c4cccnc4N)nc4ccc(-n5cccn5)nc43)ccc21 [Example 265, (S)-N-(5-(2-(2-aminopyridin-3-yl)-5-(1H-pyrazol-1-yl)-3H-imidazo[4,5-b]pyridin-3-yl)-2,3-dihydro-1H-inden-1-yl)-2-((N-methylacrylamido)methyl)benzamide] | 101 nM | 24.6 nM | 89.6 nM | 10.2 nM
